Experimental findings from patent publication US9580409B2, “Modulators of opioid receptors and methods of use thereof” (priority 2011, dated 2017) are described below.

The target of assay [1] is T1, mu-opioid receptor (Homo sapiens, UniProt P35372). The assay can be described thus: biochemical. Particulars: read-out: GTP Activity.
Target sequence in this assay (P35372 whole entry, species assumed): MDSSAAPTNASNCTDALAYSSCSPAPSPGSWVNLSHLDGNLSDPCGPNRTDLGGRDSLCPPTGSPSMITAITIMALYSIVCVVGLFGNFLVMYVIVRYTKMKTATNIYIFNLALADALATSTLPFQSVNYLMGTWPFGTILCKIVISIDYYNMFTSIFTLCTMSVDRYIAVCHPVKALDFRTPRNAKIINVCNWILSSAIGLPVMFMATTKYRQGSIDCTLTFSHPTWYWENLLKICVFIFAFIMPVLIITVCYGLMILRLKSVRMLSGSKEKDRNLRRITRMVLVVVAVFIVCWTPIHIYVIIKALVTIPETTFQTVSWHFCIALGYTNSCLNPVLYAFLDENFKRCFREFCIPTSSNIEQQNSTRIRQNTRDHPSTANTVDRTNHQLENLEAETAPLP
The target of assay [2] is T1, mu-opioid receptor. The assay can be described thus: cell-based. The note with it: read-out: BArr Activity.
Target sequence in this assay (P35372 whole entry, species assumed): as above
Target sequence in this assay (P32121 whole entry partner, species assumed): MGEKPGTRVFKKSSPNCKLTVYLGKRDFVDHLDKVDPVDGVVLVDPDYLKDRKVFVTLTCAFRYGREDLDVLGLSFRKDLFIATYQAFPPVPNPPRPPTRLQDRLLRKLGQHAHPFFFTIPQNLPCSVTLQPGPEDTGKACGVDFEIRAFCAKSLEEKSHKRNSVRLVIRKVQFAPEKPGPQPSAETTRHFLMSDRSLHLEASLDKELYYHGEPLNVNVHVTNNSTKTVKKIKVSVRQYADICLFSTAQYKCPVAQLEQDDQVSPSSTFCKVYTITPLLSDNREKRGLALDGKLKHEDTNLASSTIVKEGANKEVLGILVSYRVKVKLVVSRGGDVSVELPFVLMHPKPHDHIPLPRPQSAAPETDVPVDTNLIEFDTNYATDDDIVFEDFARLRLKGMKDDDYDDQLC
Where [3] appears, read: […], class symbol combines EC50 and efficacy.

Turning to `CNC1=C(c2nc3ccccc3[nH]2)C(=O)[C@@H](C)N1c1cc(OC)cc(OC)c1` [compound 136], the EC50 at mu-opioid receptor [1] (class symbols) was below 100 nM; at mu-opioid receptor [2] (class symbols), below 10000 nM.
The corresponding values for `CNC1=C(c2nc3ccccc3[nH]2)C(=O)[C@H](C)N1c1cc(OC)cc(OC)c1` [compound 137] are 100 to 1000 nM and below 10000 nM.
The corresponding values for `CCC1C(=O)C(c2nc3ccccc3[nH]2)=C(NC)N1c1cc(OC)cc(OC)c1` (stereo not shown) [compound 153] are below 100 nM and below 10000 nM.
The like results for `CCNC1=C(c2nc3ccccc3[nH]2)C(=O)C(CC)N1c1cc(OC)cc(OC)c1` (stereo not shown) [compound 154] were, in that order, 100 to 1000 nM and below 10000 nM.
Regarding `COc1cc(OC)cc(N2C(N)=C(c3nc4ccccc4[nH]3)C(=O)C23CCCC3)c1` [compound 180], the EC50 at mu-opioid receptor [1] (class symbols) was 100 to 1000 nM; on mu-opioid receptor [2] (class symbols), below 10000 nM.
The corresponding values for `COc1cc(OC)cc(N2C(N)=C(c3nc4ccccc4[nH]3)C(=O)C23CCOC3)c1` (stereo not shown) [compound 181] are 100 to 1000 nM and below 10000 nM.
The corresponding values for `CC[C@H]1C(=O)C(c2nc3ccccc3[nH]2)=C(NC)N1c1cc(OC)cc(OC)c1` [compound 185] are below 100 nM and below 10000 nM.
Take `CCNC1=C(c2nc3ccccc3[nH]2)C(=O)[C@H](CC)N1c1cc(OC)cc(OC)c1` [compound 187]: the figures for the EC50 on mu-opioid receptor [1] (class symbols) and at mu-opioid receptor [2] (class symbols) were below 100 nM and below 10000 nM, respectively.
The corresponding values for `CNC1=C(c2nc3ccccc3[nH]2)C(=O)C2(CCCC2)N1c1cc(OC)cc(OC)c1` [compound 188] are below 100 nM and below 10000 nM.
Turning to `COc1cc(OC)cc(N2C(N)=C(c3nc4ccccc4[nH]3)C(=O)C2CCO)c1` (stereo not shown) [compound 203], the EC50 was below 100 nM on mu-opioid receptor [1] (setting [3]) and below 10000 nM on mu-opioid receptor [2] (setting [3]).
The corresponding values for `CNC1=C(c2nc3ccccc3[nH]2)C(=O)C2(CCOC2)N1c1cc(OC)cc(OC)c1` (stereo not shown) [compound 208] are below 100 nM and below 10000 nM.
The corresponding values for `CNC1=C(c2nc3ccccc3[nH]2)C(=O)[C@]2(CCOC2)N1c1cc(OC)cc(OC)c1` [compound 213] are below 100 nM and below 10000 nM.
The like results for `CNC1=C(c2nc3ccccc3[nH]2)C(=O)[C@@]2(CCOC2)N1c1cc(OC)cc(OC)c1` [compound 214] were, in that order, below 100 nM and below 10000 nM.
Regarding `CNC1=C(c2nc3ccccc3[nH]2)C(=O)C(CCO)N1c1cc(OC)cc(OC)c1` (stereo not shown) [compound 215], the figures for the EC50 at mu-opioid receptor [1] (setting [3]) and at mu-opioid receptor [2] (setting [3]) were below 100 nM and below 10000 nM, respectively.
The like results for `CNC1=C(c2nc3ccccc3[nH]2)C(=O)C(CCOC)N1c1cc(OC)cc(OC)c1` (stereo not shown) [compound 218] were, in that order, below 100 nM and below 10000 nM.
The like results for `COc1cc(OC)cc(N2C(N)=C(c3nc4ccccc4[nH]3)C(=O)C2CCNC(C)=O)c1` (stereo not shown) [compound 233] were, in that order, below 100 nM and below 10000 nM.
The like results for `CCC(=O)NCCC1C(=O)C(c2nc3ccccc3[nH]2)=C(N)N1c1cc(OC)cc(OC)c1` (stereo not shown) [compound 235] were, in that order, below 100 nM and below 10000 nM.
Regarding `COc1cc(OC)cc(N2C(N)=C(c3nc4ccccc4[nH]3)C(=O)C2CCNC(=O)c2ccccc2)c1` (stereo not shown) [compound 236], the values for the EC50 on mu-opioid receptor [1] (setting [3]) and at mu-opioid receptor [2] (setting [3]) were below 100 nM and below 10000 nM, respectively.
The like results for `COc1cc(OC)cc(N2C(N)=C(c3nc4ccccc4[nH]3)C(=O)[C@@H]2CCO)c1` [compound 242] were, in that order, below 100 nM and below 10000 nM.
In the case of `CNC1=C(c2nc3ccccc3[nH]2)C(=O)C(CCNC(C)=O)N1c1cc(OC)cc(OC)c1` (stereo not shown) [compound 254], the results for the EC50 on mu-opioid receptor [1] (setting [3]) and on mu-opioid receptor [2] (setting [3]) were below 100 nM and below 10000 nM, respectively.
The corresponding values for `CNC1=C(c2nc3ccccc3[nH]2)C(=O)C(CCNC(=O)c2ccccc2)N1c1cc(OC)cc(OC)c1` (stereo not shown) [compound 255] are below 100 nM and below 10000 nM.
Consider `CNC1=C(c2nc3ccccc3[nH]2)C(=O)C2(CCCOC2)N1c1cc(OC)cc(OC)c1` (stereo not shown) [compound 272], for which the values for the EC50 at mu-opioid receptor [1] (setting [3]) and at mu-opioid receptor [2] (setting [3]) were below 100 nM and below 10000 nM, respectively.
The corresponding values for `CNC1=C(c2nc3ccccc3[nH]2)C(=O)C(C)(CNC(C)=O)N1c1cc(OC)cc(OC)c1` (stereo not shown) [compound 281] are below 100 nM and below 10000 nM.
Regarding `CCC(=O)NCC1(C)C(=O)C(c2nc3ccccc3[nH]2)=C(NC)N1c1cc(OC)cc(OC)c1` (stereo not shown) [compound 282], the EC50 at mu-opioid receptor [1] (setting [3]) is below 100 nM; on mu-opioid receptor [2] (setting [3]) it was below 10000 nM.
The like results for `CCC(=O)NCCC1(C)C(=O)C(c2nc3ccccc3[nH]2)=C(NC)N1c1cc(OC)cc(OC)c1` (stereo not shown) [compound 285] were, in that order, below 100 nM and below 10000 nM.
On to `CNC1=C(c2nc3ccccc3[nH]2)C(=O)C(CNC(C)=O)N1c1cc(OC)cc(OC)c1` (stereo not shown) [compound 287], for which the EC50 is below 100 nM on mu-opioid receptor [1] (setting [3]) and below 10000 nM on mu-opioid receptor [2] (setting [3]).
The like results for `CCC(=O)NCC1C(=O)C(c2nc3ccccc3[nH]2)=C(NC)N1c1cc(OC)cc(OC)c1` (stereo not shown) [compound 288] were, in that order, below 100 nM and below 10000 nM.
As for `CNC1=C(c2nc3ccccc3[nH]2)C(=O)[C@](C)(CCNC(C)=O)N1c1cc(OC)cc(OC)c1` [compound 303], the values for the EC50 at mu-opioid receptor [1] (setting [3]) and at mu-opioid receptor [2] (setting [3]) were below 100 nM and below 10000 nM, respectively.
The corresponding values for `CNC1=C(c2nc3ccccc3[nH]2)C(=O)[C@]2(CCCOC2)N1c1cc(OC)cc(OC)c1` [compound 305] are below 100 nM and below 10000 nM.
The corresponding values for `CNC1=C(c2nc3ccccc3[nH]2)C(=O)[C@](C)(CNC(C)=O)N1c1cc(OC)cc(OC)c1` [compound 307] are 100 to 1000 nM and below 10000 nM.
The corresponding values for `CNC1=C(c2nc3ccccc3[nH]2)C(=O)[C@@](C)(CNC(C)=O)N1c1cc(OC)cc(OC)c1` [compound 308] are below 100 nM and below 10000 nM.
Turning to `CNC1=C(c2nc3ccccc3[nH]2)C(=O)C(CC(C)O)N1c1cc(OC)cc(OC)c1` (stereo not shown) [compound 310], the EC50 on mu-opioid receptor [1] (setting [3]) is below 100 nM; on mu-opioid receptor [2] (setting [3]) it was below 10000 nM.
